Several values for one entry are separate records, joined by “and”; a condition that tells them apart may be missing. Equal entries are not always repeated.
What was measured:
[1] = test system: mitochondrial respiration; details: Groß et al., Immunity 2016; cited from earlier work
TLR7/TLR8 = details: background statement; cited from earlier work
NLRP3 inflammasome [2] = target: T1, NLRP3 inflammasome (Mus musculus, UniProt Q8R4B8); assay: IL-1β release from LPS-primed BMDCs (ELISA) as readout of NLRP3 inflammasome activation; format: cell-based; details: for Average IL-1β / IL-1β: LPS-primed BMDCs; for Average (% positive control): IL-1β release, positive control nigericin 5 μM; for IL-1β: single replicates
T1 construct: endogenous in cells; host or cells: primary mouse bone marrow-derived dendritic cells (BMDCs), LPS-primed
T1 sequence (Q8R4B8 whole entry): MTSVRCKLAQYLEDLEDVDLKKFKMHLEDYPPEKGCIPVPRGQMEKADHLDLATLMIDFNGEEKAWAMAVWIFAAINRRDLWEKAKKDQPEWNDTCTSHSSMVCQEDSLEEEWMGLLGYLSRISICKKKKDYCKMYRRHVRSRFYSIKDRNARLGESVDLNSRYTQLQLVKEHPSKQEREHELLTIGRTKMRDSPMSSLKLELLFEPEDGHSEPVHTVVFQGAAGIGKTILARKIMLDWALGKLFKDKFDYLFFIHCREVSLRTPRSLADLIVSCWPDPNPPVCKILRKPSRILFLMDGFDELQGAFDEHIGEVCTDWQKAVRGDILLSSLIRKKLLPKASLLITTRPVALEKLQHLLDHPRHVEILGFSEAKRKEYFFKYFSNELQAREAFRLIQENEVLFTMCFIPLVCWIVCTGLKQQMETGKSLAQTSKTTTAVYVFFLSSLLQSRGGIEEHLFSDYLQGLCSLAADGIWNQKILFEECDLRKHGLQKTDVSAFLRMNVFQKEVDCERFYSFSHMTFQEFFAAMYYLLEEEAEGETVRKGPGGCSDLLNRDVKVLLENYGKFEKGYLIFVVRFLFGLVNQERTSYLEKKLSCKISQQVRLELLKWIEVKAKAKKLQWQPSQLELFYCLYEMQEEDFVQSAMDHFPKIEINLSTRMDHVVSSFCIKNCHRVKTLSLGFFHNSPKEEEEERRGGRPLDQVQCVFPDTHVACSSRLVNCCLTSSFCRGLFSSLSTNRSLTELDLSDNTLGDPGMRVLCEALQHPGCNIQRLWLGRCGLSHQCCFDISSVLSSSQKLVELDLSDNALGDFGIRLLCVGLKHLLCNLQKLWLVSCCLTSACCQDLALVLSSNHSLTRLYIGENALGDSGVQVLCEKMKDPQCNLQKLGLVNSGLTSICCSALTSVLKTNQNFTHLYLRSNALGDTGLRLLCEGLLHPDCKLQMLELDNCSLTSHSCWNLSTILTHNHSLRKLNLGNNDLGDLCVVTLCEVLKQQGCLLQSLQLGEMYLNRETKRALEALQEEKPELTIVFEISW
Method in brief: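 NLRP3 inflammasome activation was read out as IL-1β released into the supernatant, measured by ELISA. Murine BMDCs were primed with LPS (50 ng ml^−1, 3 hours), then incubated with compounds for 3 hours, with each condition run in three technical replicates. Nigericin at 5 μM acted as the positive control activator, and IL-1β release was also expressed as a percentage of that control.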

BMDCs = assay: LDH release (lytic cell death, pyroptosis) from LPS-primed BMDCs; format: cell-based, mouse; details: for Average (% positive control): LDH release, positive control nigericin 5 μM
Method in brief: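 LDH released into medium, detected colorimetrically, served as the pyroptosis read-out in triplicate. LPS-primed (50 ng ml^−1, 3 h) murine bone marrow-derived dendritic cells received test compounds, typically 50 μM, or nigericin (5 μM), R837 or CL097 (100 μM) for 3 hours.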

NLRP3 = assay: Inflammasome stimulation (IL-1β, LDH release) in BMDCs from NLRP3 knockout or ASC knockout mice; format: cell-based, mouse; details: IL-1β and LDH release
Protocol: (§1) For canonical inflammasome activation BMDCs after 7-9 days of differentiation were harvested and counted with a Neubauer Chamber (Hecht Assistant) and the concentration was set to 1 Mio cells ml^−1. 100 μl cell suspension per well were seeded in 96-well plates. The cells were primed with 50 ng ml^−1 E. coli K12 ultra-pure LPS for 3 hours and subsequently treated with canonical inflammasome activators or experimental compounds for 3 hours if not indicated differently (incubation time FIG. 4D, 5, 7, 8, 11, 13-18: 3 h, FIG. 12: 4 h). Concentrations of the stimuli were as follows if not indicated differently: 5 μM nigericin, 100 μM imiquimod (also known as R837), 100 μM CL097, 100 μM R848, […] poly(dA:dT), 300 μg ml^−1 MSU. If an inhibitor was used before stimuli treatment, the inhibitor was added after 2.5 hours of priming and it was incubated for 30 minutes before inflammasome activation. Inhibitors were used as follows: 3 μM MCC950, 45 mM KCl, 30 μM ebselen (2-Phenyl-1,2-benzoselenazol-3-one), 5 μM cytochalasin D (see FIGS. 8, 11, 12 and 17).
(§2) All inflammasome stimulations were performed in three technical replicates for each condition. Lytic cell death was determined via LDH release (see FIGS. 8, 13-16 and 18), cytokines quantified in cell-free supernatants via ELISA (see FIGS. 4D, 7-9, 11-19) and cell lysates and supernatants analyzed via immunoblotting (see FIGS. 5A and 5B) as previously described in detail (Gross, Olaf, 2012 “Measuring the inflammasome”, Methods in molecular biology, Clifton, N.J., 844, pp. 199-222. Schneider, Katharina S.; Thomas, Christina J.; Groß, Olaf, 2013, “Inflammasome activation and inhibition in primary murine bone marrow-derived cells, and assays for IL-1α, IL-1β, and caspase-1”, Methods in molecular biology, Clifton, N.J., 1040, pp. 117-135).

NLRP3 inflammasome [3] = target: T1, NLRP3 inflammasome; assay: Inflammasome stimulation of BMDCs after pre-incubation with inhibitors (MCC950, KCl, ebselen, cytochalasin D); format: cell-based
Protocol: as §1, with “Inhibitors were used as follows: 3 μM MCC950, 45 mM KCl, 30 μM ebselen (2-Phenyl-1,2-benzoselenazol-3-one), 5 μM cytochalasin D (see FIGS. 8, 11, 12 and 17).” left out
as §2

Row | Compound | inhibition of cellular respiration (mitochondrial electron transport chain) [1] | activation of toll-like receptor-7 (TLR7) and/or TLR8 (TLR7/TLR8) | Average IL-1β (NLRP3 inflammasome [2]; 100 μM) | Average (% positive control) (NLRP3 inflammasome [2]; 100 μM) | IL-1β (NLRP3 inflammasome [2]; 100 μM) | Average LDH release (% of max.) (BMDCs; 100 μM, LPS-primed BMDCs) | Average (% positive control) (BMDCs; 100 μM) | LDH release (% of max.) (BMDCs; single replicates, 100 μM, LPS-primed BMDCs) | IL-1β (NLRP3 inflammasome [2]; 100 μM, listed as R837) | cytotoxicity at 100 µM (BMDCs; Mus musculus, BMDC, 100 μM, LPS-primed BMDCs, read-out: Average LDH release (% of max.)) | EC50 for induction of IL-1β, times lower than for imiquimod and CL097 (NLRP3 inflammasome [2]; BMDCs, FIG. 4D) | Average (% positive control) (NLRP3 inflammasome [2]; compound 50 μM) | Average IL-1β (NLRP3 inflammasome [2]; compound 50 μM) | IL-1β (NLRP3 inflammasome [2]; compound 50 μM) | characteristics of inflammasome activation in cells isolated from NLRP3 knockout mice (NLRP3) | dependence of NLRP3 inflammasome activation on potassium efflux from the cell (NLRP3 inflammasome [3]; 50 mM extracellular KCl, FIGS. 11 and 17) | effect of the endocytosis inhibitor cytochalasin D on NLRP3 activation (NLRP3 inflammasome [3]; LPS-primed wild-type BMDCs, FIG. 12) | effect of the NLRP3-specific inhibitor MCC950 on inflammasome activation by the compound (NLRP3 inflammasome [3]; wild-type BMDCs, compound 50 μM, FIG. 8) | Average (% positive control) (BMDCs; compound 50 μM) | cytotoxicity at 50 µM (BMDCs; Mus musculus, BMDC, compound 50 μM, LPS-primed BMDCs, read-out: Average LDH release (% of max.))
1 | CCOCc1nc2c([nH]1)c(N)nc1ccccc12 [CL097, reference compound] | inhibit cellular respiration | activate | 8.570 ng/mL | 119.560 % positive control | 7.355 ng/mL and 8.020 ng/mL and 8.660 ng/mL and 8.522 ng/mL and 9.540 ng/mL and 9.324 ng/mL | 68.096 % of max. | 93.083 % positive control | 56.511 % of max. and 69.145 % of max. and 62.611 % of max. and 76.051 % of max. and 68.018 % of max. and 76.242 % of max. |  |  |  |  |  |  |  |  |  |  |  | 
2 | CC(C)Cn1cnc2c(N)nc3ccccc3c21 [imiquimod, reference compound] | inhibit cellular respiration | activate | 2.376 ng/mL | 33.144 % positive control |  |  | 35.494 % positive control |  | 5.472 ng/mL and 4.151 ng/mL and 1.552 ng/mL and 1.212 ng/mL and 0.958 ng/mL and 0.911 ng/mL | 26% |  |  |  |  |  |  |  |  |  | 
3 | COc1ccccc1NC(=O)NCc1nc(-c2ccc(C(F)(F)F)cc2)no1 [EN21, 1-(2-methoxyphenyl)-3-((3-(4-(trifluoromethyl)phenyl)-1,2,4-oxadiazol-5-yl)methyl)urea] |  |  |  |  |  |  |  |  |  |  | 10 times | 108.566 % positive control | 7.782 ng/mL | 8.582 ng/mL and 7.428 ng/mL and 8.023 ng/mL and 6.613 ng/mL and 8.352 ng/mL and 7.696 ng/mL | do not occur | independently of potassium efflux | has no effect | completely suppresses | 68.766 % positive control | 50.3%

Source: US20240277658A1, “NLRP3 ACTIVATORS FOR USE IN THE TREATMENT OF INFECTIOUS DISEASES OR CANCER BY ACTIVATING NLRP3 INFLAMMASOME” (ALBERT-LUDWIGS-UNIVERSITÄT FREIBURG, priority 2020, published 2024)
